“Also recorded” adds a separate entry of the source.
How the values were obtained:
[1] = test system: purified primary NK cells or NKL cells; experiment: Real-time RT-PCR of mRNA in NK cells; format: cell-based, human; settings: 10 μM PL-C, 12 h
Protocol: (A) Chemical structure of PL-C (phyllanthusmin C, 4), (9) Healthy donor PBMCs (left panel) or enriched NK cells (right panel) were treated with DMSO vehicle control or 10 μM PL-C for 18 h in the presence of […] (10 ng/mL) or IL-15 (100 ng/mL). The cells were harvested and analyzed by intracellular flow cytometry to determine the frequency of IFN-γ^+ cells in CD56^+CD3^− NK cells (n=8 for PBMC and n=5 for enriched NK). (C) Highly purified (≧99.5%) human primary NK cells were treated with 10 μM PL-C for 18 h to determine the levels of IFN-γ secretion by ELISA. IFN-γ secretion from treatment with PL-C alone (left panel) or in combination with IL-12 (10 ng/mL, middle panel) or IL-15 (100 ng/mL, right panel) is shown. (D) Cells were treated as described in (C) and harvested at 12 h, IFNG mRNA expression was assessed by real-time RT-PCR, and the relative IFNG mRNA expression of each treatment was normalized to untreated vehicle control in the same donor. Data are shown as mean±SEM (n=6 in each treatment; error bars represent SEM). *p<0.05, **p<0.01, which denote statistical comparison between the two marked treatment groups (B-D). (E) Highly purified (≧99,5%) primary human NK cells were treated with 10 μM. PL-C in combination with various concentrations of IL-12 (10, 1, and 0.1 ng/mL) or IL-15 (100, 10, and 1 ng/mL) for 24 h to determine the levels of IFN-γ secretion. Representative data from one of three donors with the similar data are shown. *p<0.05, **p<0.01, which denote statistical comparison between the two marked treatment groups and are calculated from data of all tested donors. Error bars represent SD. […]
(A) Human […] were treated with DMSO vehicle control or 10 μM PL-C for 18 hours in the presence of IL-12 (10 ng/mL) or IL-15 (100 ng/mL), as described in FIG. 37C. […] (B) Purified primary NK cells were treated with IL-12 (10 ng/mL) or IL-15 (100 ng/mL) with or without 10 μM PL-C for 8 hours and were sequentially co-cultured with […] labeled ARH-77 cells at various effector/target cell ratios for additional 4 hours. ^51Cr release was measured by a TopCount counter. […]

[2] = test system: STAT3, STAT4, STAT5, T-BET; experiment: Immunoblotting of STATs and T-BET in NK cells; format: cell-based, human; settings: 5 or 10 μM PL-C, 4 h, with IL-12 or IL-15; listed as PL-C
Protocol: (A) Purified human primary NK cells were treated with 10 μM PL-C in the presence of IL-2 (10 ng/mL) or IL-15 (100 ng/mL) for 12 hours. DMSO-treated cells served as vehicle controls. Cell pellets were harvested to extract total RNA for real-time RT-PCR to determine mRINA expression levels of IL-12Rβ1, IL-12Rβ2, IL-15Rα and IL-15β. Data are shown as means of 3 donors, * and ** indicate p<0.05 and p<0.01, respectively, which denote a statistical comparison between the two marked treatment groups. Error bars represent S.D. (B, C) Purified primary NK cells (B) or NKL cells (C) were treated with 5 or 10 μM PL-C in the presence of IL-12 (10 ng/mL) or IL-15 (100 ng/mL) for 4 hours. DMSO-treated cells served as vehicle controls. Cell pellets were harvested for subsequent immunoblotting of T-BET, phosphorylated STAT3 (p-STAT3), p-STAT4, p-STAT5, STAT3, STAT4, and STAT5. Data represent 1 out of 3 donors with similar data (B) and 3 independent experiments with similar results (C). Numbers underneath each lane represent quantification of detected protein by densitometry, after normalizing to β-actin.
Immunoblotting. Immunoblotting was performed as described previously (Yu J et al. Immunity 2006, 24, 575-590; Yu J et al. Blood 2010, 115, 274-281). […]

Structure (SMILES): COc1cc2c(OC3OCC(O)C(O)C3O)c3c(c(-c4ccc5c(c4)OCO5)c2cc1OC)C(=O)OC3 (stereo not shown) [Compound 4, Phyllanthusmin C]
- IFNG mRNA expression in NK cells ([1]; alone or with IL-12 or IL-15): induced IFN-γ gene (IFNG) expression at the transcriptional level
- mRNA expression of IL-12R and IL-15R chains ([1]; cotreated with IL-12): downregulated mRNA expression of IL-12Rβ1, IL-12Rβ2, and IL-15Rα
- expression of cytotoxicity-associated genes (granzyme A, granzyme B, perforin, Fas ligand) ([1]; with IL-12 or IL-15): unaffected
- total or phosphorylated STAT3, STAT4, STAT5 and T-BET in NK or NKL cells [2]: No upregulation; also recorded: no significant change of T-BET
